{"source": "patent US20230203098A1", "about": "“HUMAN TRANSFERRIN RECEPTOR BINDING PEPTIDE” (priority 2020, published 2023)", "molecular_target": "transferrin receptor (hTfR) (Homo sapiens, UniProt P02786)", "sequence (P02786 whole entry)": "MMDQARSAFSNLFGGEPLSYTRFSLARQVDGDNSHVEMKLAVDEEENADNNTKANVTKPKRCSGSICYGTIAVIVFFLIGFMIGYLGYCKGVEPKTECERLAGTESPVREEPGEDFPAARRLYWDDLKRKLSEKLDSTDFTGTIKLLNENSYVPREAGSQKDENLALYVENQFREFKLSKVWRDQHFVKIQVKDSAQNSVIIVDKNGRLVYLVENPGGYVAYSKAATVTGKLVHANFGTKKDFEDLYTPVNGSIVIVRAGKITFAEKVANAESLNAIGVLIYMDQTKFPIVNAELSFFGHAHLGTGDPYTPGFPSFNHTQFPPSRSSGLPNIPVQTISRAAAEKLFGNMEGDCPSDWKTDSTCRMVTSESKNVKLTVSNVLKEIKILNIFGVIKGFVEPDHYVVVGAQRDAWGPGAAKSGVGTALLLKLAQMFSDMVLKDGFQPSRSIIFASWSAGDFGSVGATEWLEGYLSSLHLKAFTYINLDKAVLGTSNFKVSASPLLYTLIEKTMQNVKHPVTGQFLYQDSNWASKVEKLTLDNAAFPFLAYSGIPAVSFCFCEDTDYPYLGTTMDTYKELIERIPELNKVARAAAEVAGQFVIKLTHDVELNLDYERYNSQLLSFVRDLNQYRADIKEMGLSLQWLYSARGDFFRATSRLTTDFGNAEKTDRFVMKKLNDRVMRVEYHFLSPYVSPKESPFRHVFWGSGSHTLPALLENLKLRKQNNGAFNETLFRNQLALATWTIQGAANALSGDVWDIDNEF", "experiment": "Intermolecular interaction evaluation test between transferrin receptor (hTfR) and peptide by surface plasmon resonance (SPR)", "format": "binding", "settings": "binding to hTfR by SPR; Table 2 peptides; read-out: KD value (SPR) class", "method_in_brief": "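Receptor was Ni-captured and EDC/NHS-fixed on an NTA chip; running buffer HEPES pH 8.0 with NaCl, Tween 20, BSA and 1.0% DMSO.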", "note": "Where a SMILES comes first, the peptide text is derived from it. Bridges are numbered along the chain shown (N, C = ends). [ ]: non-standard residue; d: D form. NMePhe(3-Cl) = CN[C@@H](Cc1cccc(Cl)c1)C(=O)O; NMeW = CN[C@@H](Cc1c[nH]c2ccccc12)C(=O)O; NMeY = CN[C@@H](Cc1ccc(O)cc1)C(=O)O; PEG4 = NCCOCCOCCOCCOCCC(=O)O; Nva = CCC[C@H](N)C(=O)O"}
{"smiles": "CCC[C@@H]1NC(=O)[C@H](C)NC(=O)CSC[C@@H](C(=O)NCCOCCOCCOCCOCCC(N)=O)NC(=O)[C@H](Cc2ccc(O)cc2)N(C)C(=O)[C@H](Cc2ccccc2)NC(=O)[C@@H](CCCNC(=N)N)NC(=O)[C@H](CCCNC(=N)N)NC(=O)[C@H]([C@@H](C)CC)NC(=O)[C@H]([C@@H](C)CC)NC(=O)[C@H](Cc2ccc(OC)cc2)NC(=O)[C@H](Cc2ccc(O)cc2)NC(=O)[C@H](CC(N)=O)NC(=O)[C@H](Cc2c[nH]c3ccccc23)N(C)C(=O)[C@H](C(C)C)NC(=O)[C@H](Cc2cccc(Cl)c2)N(C)C1=O", "note": "[compound 244] ({CH2CO}-A[Nva][NMePhe(3-Cl)]V[NMeW]NYY(Me)IIR[dR]F[NMeY]C[PEG4]-NH2; thioether N-15)", "values": [{"measurement": "Kd", "result": "1 to 100", "unit": "nM"}]}
{"smiles": "CC[C@H](C)[C@@H]1NC(=O)[C@H](Cc2ccc(O)cc2)NC(=O)[C@H](Cc2ccc(O)cc2)NC(=O)[C@H](CC(N)=O)NC(=O)[C@H](Cc2c[nH]c3ccccc23)NC(=O)[C@H](C(C)C)NC(=O)[C@H](Cc2ccccc2)NC(=O)[C@H](C(C)C)NC(=O)[C@H](C)NC(=O)CSC[C@@H](C(N)=O)NC(=O)[C@H](Cc2ccc(O)cc2)N(C)C(=O)[C@H](Cc2ccc(O)cc2)NC(=O)[C@H](CCCNC(=N)N)NC(=O)[C@H](CCCNC(=N)N)NC(=O)[C@H](CCC(=O)O)NC1=O", "note": "[compound 247]", "values": [{"measurement": "Kd", "result": "1 to 100", "unit": "nM"}]}
{"smiles": "CC[C@H](C)[C@@H]1NC(=O)[C@H](Cc2ccc(O)cc2)NC(=O)[C@H](Cc2ccc(O)cc2)NC(=O)[C@H](CC(N)=O)NC(=O)[C@H](Cc2c[nH]c3ccccc23)NC(=O)[C@H](C(C)C)NC(=O)[C@H](Cc2ccccc2)NC(=O)[C@H](C(C)C)NC(=O)[C@H](C)NC(=O)CSC[C@@H](C(N)=O)NC(=O)[C@H](Cc2ccc(O)cc2)N(C)C(=O)[C@H](Cc2ccc(O)cc2)NC(=O)[C@H](CCCNC(=N)N)NC(=O)[C@H](CCCNC(=N)N)NC(=O)[C@H](CCCNC(=N)N)NC1=O", "note": "[compound 248]", "values": [{"measurement": "Kd", "result": "1 to 100", "unit": "nM"}]}
{"smiles": "CC[C@H](C)[C@@H]1NC(=O)[C@H](Cc2ccc(O)cc2)NC(=O)[C@H](Cc2ccc(O)cc2)NC(=O)[C@H](CC(N)=O)NC(=O)[C@H](Cc2c[nH]c3ccccc23)NC(=O)[C@H](C(C)C)NC(=O)[C@H](Cc2ccccc2)NC(=O)[C@H](C(C)C)NC(=O)[C@H](C)NC(=O)CSC[C@@H](C(N)=O)NC(=O)[C@H](Cc2ccc(O)cc2)N(C)C(=O)[C@H](Cc2ccc(O)cc2)NC(=O)[C@H](CCCNC(=N)N)NC(=O)[C@H](CCCNC(=N)N)NC(=O)[C@H](CCCCN)NC1=O", "note": "[compound 249] ({CH2CO}-AVFVWNYYIKRRY[NMeY]C-NH2; thioether N-15)", "values": [{"measurement": "Kd", "result": "< 1", "unit": "nM"}]}
{"smiles": "CC[C@H](C)[C@@H]1NC(=O)[C@H](Cc2ccc(O)cc2)NC(=O)[C@H](Cc2ccc(O)cc2)NC(=O)[C@H](CC(N)=O)NC(=O)[C@H](Cc2c[nH]c3ccccc23)NC(=O)[C@H](C(C)C)NC(=O)[C@H](Cc2ccccc2)NC(=O)[C@H](C(C)C)NC(=O)[C@H](C)NC(=O)CSC[C@@H](C(N)=O)NC(=O)[C@H](Cc2ccc(O)cc2)N(C)C(=O)[C@H](Cc2ccc(O)cc2)NC(=O)[C@H](CCCNC(=N)N)NC(=O)[C@H](CCC(=O)O)NC(=O)[C@H]([C@@H](C)CC)NC1=O", "note": "[compound 251]", "values": [{"measurement": "Kd", "result": "1 to 100", "unit": "nM"}]}
{"smiles": "CC[C@H](C)[C@@H]1NC(=O)[C@H](Cc2ccc(O)cc2)NC(=O)[C@H](Cc2ccc(O)cc2)NC(=O)[C@H](CC(N)=O)NC(=O)[C@H](Cc2c[nH]c3ccccc23)NC(=O)[C@H](C(C)C)NC(=O)[C@H](Cc2ccccc2)NC(=O)[C@H](C(C)C)NC(=O)[C@H](C)NC(=O)CSC[C@@H](C(N)=O)NC(=O)[C@H](Cc2ccc(O)cc2)N(C)C(=O)[C@H](Cc2ccc(O)cc2)NC(=O)[C@H](C)NC(=O)[C@H](CCC(=O)O)NC(=O)[C@H]([C@@H](C)CC)NC1=O", "note": "[compound 252]", "values": [{"measurement": "Kd", "result": "100 to 1000", "unit": "nM"}]}
{"smiles": "CC[C@H](C)[C@@H]1NC(=O)[C@H](Cc2ccc(O)cc2)NC(=O)[C@H](Cc2ccc(O)cc2)NC(=O)[C@H](CC(N)=O)NC(=O)[C@H](Cc2c[nH]c3ccccc23)NC(=O)[C@H](C(C)C)NC(=O)[C@H](Cc2ccccc2)NC(=O)[C@H](C(C)C)NC(=O)[C@H](C)NC(=O)CSC[C@@H](C(N)=O)NC(=O)[C@H](Cc2ccc(O)cc2)N(C)C(=O)[C@H](Cc2ccc(O)cc2)NC(=O)[C@H](CCCNC(=N)N)NC(=O)[C@H](C)NC(=O)[C@H]([C@@H](C)CC)NC1=O", "note": "[compound 253]", "values": [{"measurement": "Kd", "result": "1 to 100", "unit": "nM"}]}
{"smiles": "CC[C@H](C)[C@@H]1NC(=O)[C@H](Cc2ccc(O)cc2)NC(=O)[C@H](Cc2ccc(O)cc2)NC(=O)[C@H](CC(N)=O)NC(=O)[C@H](Cc2c[nH]c3ccccc23)NC(=O)[C@H](C(C)C)NC(=O)[C@H](Cc2ccccc2)NC(=O)[C@H](C(C)C)NC(=O)[C@H](C)NC(=O)CSC[C@@H](C(N)=O)NC(=O)[C@H](Cc2ccc(O)cc2)N(C)C(=O)[C@H](Cc2ccc(O)cc2)NC(=O)[C@H](CCCNC(=N)N)NC(=O)[C@H](CCCCN)N(C)C(=O)[C@H]([C@@H](C)CC)NC1=O", "note": "[compound 254]", "values": [{"measurement": "Kd", "result": "1 to 100", "unit": "nM"}]}
{"smiles": "CC[C@H](C)[C@@H]1NC(=O)[C@H](Cc2ccc(O)cc2)NC(=O)[C@H](Cc2ccc(O)cc2)NC(=O)[C@H](CC(N)=O)NC(=O)[C@H](Cc2c[nH]c3ccccc23)NC(=O)[C@H](C(C)C)NC(=O)[C@H](Cc2ccccc2)NC(=O)[C@H](C(C)C)NC(=O)[C@H](C)NC(=O)CSC[C@@H](C(N)=O)NC(=O)[C@H](Cc2ccc(O)cc2)N(C)C(=O)[C@H](Cc2ccc(O)cc2)NC(=O)[C@H](CCCNC(=N)N)NC(=O)[C@H](CCCCN)NC(=O)[C@H]([C@@H](C)CC)NC1=O", "note": "[compound 255]", "values": [{"measurement": "Kd", "result": "< 1", "unit": "nM"}]}
{"smiles": "CC[C@H](C)[C@@H]1NC(=O)[C@H](Cc2ccc(O)cc2)NC(=O)[C@H](Cc2ccc(O)cc2)NC(=O)[C@H](CC(N)=O)NC(=O)[C@H](Cc2c[nH]c3ccccc23)NC(=O)[C@H](C(C)C)NC(=O)[C@H](Cc2ccccc2)NC(=O)[C@H](C(C)C)NC(=O)[C@H](C)NC(=O)CSC[C@@H](C(N)=O)NC(=O)[C@H](Cc2ccc(O)cc2)N(C)C(=O)[C@H](Cc2ccc(O)cc2)NC(=O)[C@H](C)NC(=O)[C@H](CCCNC(=N)N)NC(=O)[C@H]([C@@H](C)CC)NC1=O", "note": "[compound 256]", "values": [{"measurement": "Kd", "result": "1 to 100", "unit": "nM"}]}
{"smiles": "CC[C@H](C)[C@@H]1NC(=O)[C@H](Cc2ccc(O)cc2)NC(=O)[C@H](Cc2ccc(O)cc2)NC(=O)[C@H](CC(N)=O)NC(=O)[C@H](Cc2c[nH]c3ccccc23)NC(=O)[C@H](C(C)C)NC(=O)[C@H](Cc2ccccc2)NC(=O)[C@H](C(C)C)NC(=O)[C@H](C)NC(=O)CSC[C@@H](C(N)=O)NC(=O)[C@H](Cc2ccc(O)cc2)N(C)C(=O)[C@H](Cc2ccc(O)cc2)NC(=O)[C@H](CCC(=O)O)NC(=O)[C@H](CCCNC(=N)N)NC(=O)[C@H]([C@@H](C)CC)NC1=O", "note": "[compound 257]", "values": [{"measurement": "Kd", "result": "1 to 100", "unit": "nM"}]}
{"smiles": "CC[C@H](C)[C@@H]1NC(=O)[C@H](Cc2ccc(O)cc2)NC(=O)[C@H](Cc2ccc(O)cc2)NC(=O)[C@H](CC(N)=O)NC(=O)[C@H](Cc2c[nH]c3ccccc23)NC(=O)[C@H](C(C)C)NC(=O)[C@H](Cc2ccccc2)NC(=O)[C@H](C(C)C)NC(=O)[C@H](C)NC(=O)CSC[C@@H](C(N)=O)NC(=O)[C@H](Cc2ccc(O)cc2)N(C)C(=O)[C@H](Cc2ccc(O)cc2)NC(=O)[C@H](CCCCN)NC(=O)[C@H](CCCNC(=N)N)NC(=O)[C@H]([C@@H](C)CC)NC1=O", "note": "[compound 258]", "values": [{"measurement": "Kd", "result": "1 to 100", "unit": "nM"}]}
{"smiles": "CC[C@H](C)[C@@H]1NC(=O)[C@H](Cc2ccc(O)cc2)NC(=O)[C@H](Cc2ccc(O)cc2)NC(=O)[C@H](CC(N)=O)NC(=O)[C@H](Cc2c[nH]c3ccccc23)NC(=O)[C@H](C(C)C)NC(=O)[C@H](Cc2ccccc2)NC(=O)[C@H](C(C)C)NC(=O)[C@H](C)NC(=O)CSC[C@@H](C(N)=O)NC(=O)[C@H](Cc2ccc(O)cc2)N(C)C(=O)[C@H](CCC(=O)O)NC(=O)[C@H](CCCNC(=N)N)NC(=O)[C@H](CCCNC(=N)N)NC(=O)[C@H]([C@@H](C)CC)NC1=O", "note": "[compound 259]", "values": [{"measurement": "Kd", "result": "1 to 100", "unit": "nM"}]}
{"smiles": "CC[C@H](C)[C@@H]1NC(=O)[C@H](Cc2ccc(O)cc2)NC(=O)[C@H](Cc2ccc(O)cc2)NC(=O)[C@H](CC(N)=O)NC(=O)[C@H](Cc2c[nH]c3ccccc23)NC(=O)[C@H](C(C)C)NC(=O)[C@H](Cc2ccccc2)NC(=O)[C@H](C(C)C)NC(=O)[C@H](C)NC(=O)CSC[C@@H](C(N)=O)NC(=O)[C@H](Cc2ccc(O)cc2)N(C)C(=O)[C@H](CCCNC(=N)N)NC(=O)[C@H](CCCNC(=N)N)NC(=O)[C@H](CCCNC(=N)N)NC(=O)[C@H]([C@@H](C)CC)NC1=O", "note": "[compound 260]", "values": [{"measurement": "Kd", "result": "1 to 100", "unit": "nM"}]}
{"smiles": "CC[C@H](C)[C@@H]1NC(=O)[C@H](Cc2ccc(O)cc2)NC(=O)[C@H](Cc2ccc(O)cc2)NC(=O)[C@H](CC(N)=O)NC(=O)[C@H](Cc2c[nH]c3ccccc23)NC(=O)[C@H](C(C)C)NC(=O)[C@H](Cc2ccccc2)NC(=O)[C@H](C(C)C)NC(=O)[C@H](C)NC(=O)CSC[C@@H](C(N)=O)NC(=O)[C@H](Cc2ccc(O)cc2)N(C)C(=O)[C@H](CCCCN)NC(=O)[C@H](CCCNC(=N)N)NC(=O)[C@H](CCCNC(=N)N)NC(=O)[C@H]([C@@H](C)CC)NC1=O", "note": "[compound 261]", "values": [{"measurement": "Kd", "result": "1 to 100", "unit": "nM"}]}
{"smiles": "CC[C@H](C)[C@@H]1NC(=O)[C@H](Cc2ccc(O)cc2)NC(=O)[C@H](Cc2ccc(O)cc2)NC(=O)[C@H](CC(N)=O)NC(=O)[C@H](Cc2c[nH]c3ccccc23)NC(=O)[C@H](C(C)C)NC(=O)[C@H](Cc2ccccc2)NC(=O)[C@H](C(C)C)NC(=O)[C@H](C)NC(=O)CSC[C@@H](C(=O)NCC(=O)NCC(=O)N[C@@H](CO)C(=O)NCC(=O)N[C@@H](CO)C(=O)NCC(=O)N[C@@H](CCCCNC(=O)C2CCC(CN3C(=O)C=CC3=O)CC2)C(N)=O)NC(=O)[C@H](Cc2ccc(O)cc2)NC(=O)[C@H](Cc2ccccc2)NC(=O)[C@H](CCCNC(=N)N)NC(=O)[C@H](CCCNC(=N)N)NC(=O)[C@H]([C@@H](C)CC)NC1=O", "note": "(some centres unmarked) [compound 262]", "values": [{"measurement": "Kd", "result": "100 to 1000", "unit": "nM"}]}
{"smiles": "CC[C@H](C)[C@@H]1NC(=O)[C@H](Cc2ccc(O)cc2)NC(=O)[C@H](Cc2ccc(O)cc2)NC(=O)[C@H](CC(N)=O)NC(=O)[C@H](Cc2c[nH]c3ccccc23)N(C)C(=O)[C@H](C(C)C)NC(=O)[C@H](Cc2ccccc2)NC(=O)[C@H](C(C)C)NC(=O)[C@H](C)NC(=O)CSC[C@@H](C(N)=O)NC(=O)[C@H](Cc2ccc(O)cc2)N(C)C(=O)[C@H](Cc2ccc(O)cc2)NC(=O)[C@H](CCCNC(=N)N)NC(=O)[C@H](CCCNC(=N)N)NC(=O)[C@H]([C@@H](C)CC)NC1=O", "note": "[compound 263]", "values": [{"measurement": "Kd", "result": "< 1", "unit": "nM"}]}
